Results taken from the CheMixHub viscosity set.
± gives the uncertainty stated by the source.

Experiment: xn = mol fraction of the nth substance listed

CNC=O + O
viscosity [mPa·s]
Conditions	298 K	298.15 K	303 K	303.15 K	308.15 K	313.15 K	318.15 K	323.15 K
101 kPa, x1 = 0.0328	1.05 ± 0.0093	–	0.9456 ± 0.0084	–	–	–	–	–
101 kPa, x1 = 0.1	–	1.384 ± 0.021	–	1.219 ± 0.019	1.083 ± 0.017	0.9687 ± 0.016	0.871 ± 0.014	–
101 kPa, x1 = 0.1158	1.305 ± 0.012	–	1.176 ± 0.01	–	–	–	–	–
101 kPa, x1 = 0.1999	–	1.754 ± 0.027	–	1.539 ± 0.024	1.363 ± 0.021	1.215 ± 0.019	1.084 ± 0.017	–
101 kPa, x1 = 0.2341	1.573 ± 0.014	–	1.425 ± 0.013	–	–	–	–	–
101 kPa, x1 = 0.3002	–	1.967 ± 0.03	–	1.728 ± 0.026	1.532 ± 0.024	1.366 ± 0.021	1.222 ± 0.019	–
101 kPa, x1 = 0.4001	–	–	–	1.805 ± 0.028	1.608 ± 0.025	1.44 ± 0.023	1.3 ± 0.021	–
101 kPa, x1 = 0.4163	–	–	1.625 ± 0.015	–	–	–	–	–
101 kPa, x1 = 0.4998	–	2.031 ± 0.031	–	1.818 ± 0.028	1.636 ± 0.025	1.472 ± 0.023	1.331 ± 0.021	–
101 kPa, x1 = 0.6006	–	1.975 ± 0.03	–	1.772 ± 0.027	1.59 ± 0.025	1.437 ± 0.023	1.304 ± 0.021	–
101 kPa, x1 = 0.6995	–	1.902 ± 0.029	–	1.712 ± 0.027	1.546 ± 0.024	1.401 ± 0.022	1.273 ± 0.02	–
101 kPa, x1 = 0.7334	1.658 ± 0.016	–	1.5 ± 0.014	–	–	–	–	–
101 kPa, x1 = 0.8	–	1.836 ± 0.029	–	1.658 ± 0.026	1.502 ± 0.024	1.364 ± 0.022	1.243 ± 0.02	–
101 kPa, x1 = 0.8997	–	1.781 ± 0.028	–	1.609 ± 0.026	1.459 ± 0.023	1.327 ± 0.022	1.21 ± 0.02	–
101.33 kPa, x1 = 0.0969	–	–	–	1.216 ± 0.0096	1.086 ± 0.0087	0.974 ± 0.0079	0.8818 ± 0.0073	0.8012 ± 0.0067
101.33 kPa, x1 = 0.2015	–	–	–	1.529 ± 0.012	1.36 ± 0.011	1.219 ± 0.0097	1.098 ± 0.0088	0.9948 ± 0.0081
101.33 kPa, x1 = 0.2996	–	–	–	1.718 ± 0.013	1.531 ± 0.012	1.373 ± 0.011	1.24 ± 0.0099	1.124 ± 0.0091
101.33 kPa, x1 = 0.4005	–	–	–	1.792 ± 0.014	1.603 ± 0.013	1.445 ± 0.012	1.308 ± 0.011	1.187 ± 0.0097
101.33 kPa, x1 = 0.4994	–	–	–	1.789 ± 0.014	1.61 ± 0.013	1.458 ± 0.012	1.327 ± 0.011	1.211 ± 0.01
101.33 kPa, x1 = 0.5995	–	–	–	1.753 ± 0.014	1.576 ± 0.013	1.443 ± 0.012	1.32 ± 0.011	1.21 ± 0.01
101.33 kPa, x1 = 0.6999	–	–	–	1.693 ± 0.014	1.542 ± 0.013	1.412 ± 0.012	1.296 ± 0.011	1.193 ± 0.01
101.33 kPa, x1 = 0.7999	–	–	–	1.649 ± 0.014	1.509 ± 0.013	1.388 ± 0.012	1.279 ± 0.011	1.182 ± 0.01
101.33 kPa, x1 = 0.9001	–	–	–	1.61 ± 0.014	1.478 ± 0.013	1.361 ± 0.012	1.261 ± 0.011	1.164 ± 0.011
